Assay results taken from patent US20180221306A1, “PHARMACEUTICAL COMPOSITIONS OF 5-HYDROXY-2-METHYLNAPHTHALENE-1,4-DIONE” (PellFiCure Pharmaceuticals, Inc., priority 2016, published 2018).
Converted amounts (≈) assume the structure as drawn. Marks after values point to notes of the source that are not given here.

Legend:
PTEN-P2 mouse cells = assay: Orthotopic prostate cancer survival study, PTEN-P2 cells in Fox1/Nu mice; type: in vivo
Procedure: Orthotopic injection of PTEN-P2 and TRAMP-C2 for survival studies: Mice were anaesthetized and an incision was made through the skin and peritoneum. A total of 30,000 cells were suspended in Matrigel and slowly injected into the dorsal lobe of the prostate using a 30-gauge needle. Matrigel was used to prevent the leakage of cells out of the site of injection. A Q-tip was held over the injection site for 1 min to prevent bleeding and spill after removal of the needle. The abdominal wall was closed by surgical silk sutures.
Fox1/Nu or C57BL/6J mice were used as recipients for PTEN-P2 and TRAMP-C2 cells, respectively. Mice were surgically castrated 6 weeks later, when tumors were established, and Compound I treatment was initiated 4-5 days later. The number of days mice lived following treatment initiation was recorded for each animal. A few mice were found dead upon daily inspection, while others were euthanized in agreement with our IACUC regulations, including mice showing weight losses of more than 15% and mice showing signs of pain though posture and lack of grooming were euthanized.
An orthotopic model of prostate cancer in which 30,000 PTEN-P2 mouse cells were injected into the prostate of Fox1/Nu mice was used. Mice were castrated 5 weeks after the PTEN-P2 mouse cells were injected into the prostate, which allowed the tumors to become established. […] The number of days mice lived following treatment initiation was recorded for each animal.

physchem = type: physicochemical; settings: for solubility thermodynamic: 25 °C, thermodynamic from solid
Procedure: The maximum quantity of Compound I that can be completely dissolved at 25° C. in the several aqueous buffers and other solvents was evaluated using HPLC. […] Samples were injected with a 250 μg/ml nominal concentration. For samples of unknown concentration, dilutions were made to target the linear range of the method. All samples were quantified based on a linear standard curve. Measurements were performed by Pharmatek Laboratories, Inc. (San Diego, Calif.) with industry-standard quality controls.

[1] = Water uptake of Compound I (Karl Fischer coulometric analysis); type: physicochemical
Procedure: For the purposes of establishing material handling practices, Compound I was evaluated for water uptake in various controlled conditions. Compound I was exposed to 25° C./60% relative humidity and 40° C./75% relative humidity for up to one day. Approximately 200 mg of Compound I was accurately weighed into separate glass vials and placed uncapped in stability chambers. At various time points, the vials were removed, stoppered and crimped, and the water content for Compound I powder was determined by standard Karl Fischer coulometric analysis.

[2] = Forced degradation: stability of Compound I formulations in selected solvents and Carrier A (HPLC)
[3] = 10% HPβCD, 25° C./60% RH, t = 2 week

CC1=CC(=O)c2c(O)cccc2C1=O [Compound I, 5-hydroxy-2-methylnaphthalene-1,4-dione]
Survival, combination with castration vs castration alone (PTEN-P2 mouse cells; oral 1 mg/kg/day in Carrier A plus castration, p=0.01): survived significantly longer
Survival, Compound I alone vs castration alone (PTEN-P2 mouse cells; oral 1 mg/kg/day in Carrier A, p=0.118): not statistically different
Survival, combination with castration vs untreated control (PTEN-P2 mouse cells; oral formulation plus castration, p=0.042): survived longer
Survival, Compound I alone vs untreated control (PTEN-P2 mouse cells; p=0.296): not statistically different
Solubility in Carrier A (physchem): well soluble
Solubility in aqueous media (physchem): mostly insoluble
Solubility in mixtures of triacylglycerols (physchem): good solubility
Solubility in organic solvents (physchem): good solubility
solubility thermodynamic (physchem; pH 1, aqueous buffer): 48 µg/mL (≈ 255 µM)
solubility thermodynamic (physchem; pH 2, aqueous buffer): 45 µg/mL (≈ 239 µM)
solubility thermodynamic (physchem; pH 3, aqueous buffer): 49 µg/mL (≈ 260 µM)
solubility thermodynamic (physchem; pH 4, aqueous buffer): 16 µg/mL (≈ 85 µM)
solubility thermodynamic (physchem; pH 5, aqueous buffer): 46 µg/mL (≈ 244 µM)
solubility thermodynamic (physchem; pH 6, aqueous buffer): 44 µg/mL (≈ 234 µM)
solubility thermodynamic (physchem; pH 7, aqueous buffer): 49 µg/mL (≈ 260 µM)
solubility thermodynamic (physchem; pH 8, aqueous buffer): 43 µg/mL (≈ 229 µM)
solubility thermodynamic (physchem; pH 9, aqueous buffer): 75 µg/mL (≈ 399 µM)
solubility thermodynamic (physchem; pH 10, aqueous buffer): 240 µg/mL (≈ 1280 µM)
solubility thermodynamic (physchem; water): 72 µg/mL (≈ 383 µM)
Water content ([1]; 25° C./60% RH, 0 hours): 0.023%
Water content ([1]; 25° C./60% RH, 5 hours): 0.026%
Water content ([1]; 25° C./60% RH, 24 hours): 0.029%
Water content of Compound I powder (in words) ([1]; 25° C./60% and 40° C./75% relative humidity, up to one day): anhydrous
Water content ([1]; 40° C./75% RH, 0 hours): 0.023%
Water content ([1]; 40° C./75% RH, 5 hours): 0.027%
Water content ([1]; 40° C./75% RH, 24 hours): 0.031%
Sensitivity to water uptake ([1]; at up to 75% relative humidity): not sensitive to water uptake
Solution Stability in Selected Solvents, Purity ([2]; 1% TW20, 25° C./60% RH, t = 0): 97.00 % Area
Solution Stability in Selected Solvents, Purity ([2]; 1% TW20, 25° C./60% RH, t = 1 week, precipitation observed): 64.23^‡ % Area
Solution Stability in Selected Solvents, Purity ([2]; 1% TW20, 25° C./60% RH, t = 2 week, precipitation observed): 50.47^‡ % Area
Solution Stability in Selected Solvents, Purity ([2]; 1% TW20, 40° C./75% RH, t = 1 week, precipitation observed): 47.19^‡ % Area
Solution Stability in Selected Solvents, Purity ([2]; 1% TW20, 40° C./75% RH, t = 2 week, precipitation observed): 41.25^‡ % Area
Solution Stability in Selected Solvents, Purity ([2]; 1% TW80, 25° C./60% RH, t = 0): 95.11 % Area
Solution Stability in Selected Solvents, Purity ([2]; 1% TW80, 25° C./60% RH, t = 1 week, precipitation observed): 57.32^‡ % Area
Solution Stability in Selected Solvents, Purity ([2]; 1% TW80, 25° C./60% RH, t = 2 week, precipitation observed): 47.62^‡ % Area
Solution Stability in Selected Solvents, Purity ([2]; 1% TW80, 40° C./75% RH, t = 1 week, precipitation observed): 42.07^‡ % Area
Solution Stability in Selected Solvents, Purity ([2]; 1% TW80, 40° C./75% RH, t = 2 week, precipitation observed): 40.53^‡ % Area
Solution Stability in Selected Solvents, Purity ([2]; 10% HPβCD, 25° C./60% RH, t = 0): 99.49 % Area
Solution Stability in Selected Solvents, Purity ([2]; 10% HPβCD, 25° C./60% RH, t = 1 week): 97.41 % Area
Solution Stability in Selected Solvents, % Potency [2, 3]: 91.09%
Solution Stability in Selected Solvents, Purity [2, 3]: 94.73 % Area
Solution Stability in Selected Solvents, Purity ([2]; 10% HPβCD, 40° C./75% RH, t = 1 week): 91.22 % Area
Solution Stability in Selected Solvents, Purity ([2]; 10% HPβCD, 40° C./75% RH, t = 2 week): 87.69 % Area
Solution Stability in Selected Solvents, Purity ([2]; ACN, 25° C./60% RH, t = 0): 95.56 % Area
Solution Stability in Selected Solvents, Purity ([2]; ACN, 25° C./60% RH, t = 1 week): 93.35 % Area
Solution Stability in Selected Solvents, Purity ([2]; ACN, 25° C./60% RH, t = 2 week): 91.03 % Area
Solution Stability in Selected Solvents, Purity ([2]; ACN, 40° C./75% RH, t = 1 week): 93.33 % Area
Solution Stability in Selected Solvents, Purity ([2]; ACN, 40° C./75% RH, t = 2 week): 93.59 % Area
Solution Stability in Selected Solvents, Purity ([2]; Acetone, 25° C./60% RH, t = 0): 94.35 % Area
Solution Stability in Selected Solvents, Purity ([2]; Acetone, 25° C./60% RH, t = 1 week): 93.49 % Area
Solution Stability in Selected Solvents, Purity ([2]; Acetone, 25° C./60% RH, t = 2 week): 92.27 % Area
Solution Stability in Selected Solvents, Purity ([2]; Acetone, 40° C./75% RH, t = 1 week): 91.94 % Area
Solution Stability in Selected Solvents, Purity ([2]; Acetone, 40° C./75% RH, t = 2 week): 91.52 % Area
Stability of the formulation in Carrier A (sesame oil), Purity ([2]; Carrier A (NF), 25° C./60% RH, t = 3 day): 99.2 Area - %
Stability of the formulation in Carrier A (sesame oil), Purity ([2]; Carrier A (NF), 25° C./60% RH, t = 10 day): 99.4 Area - %
Stability of the formulation in Carrier A (sesame oil), Purity ([2]; Carrier A (NF), 40° C./75% RH, t = 3 day): 98.9 Area - %
Stability of the formulation in Carrier A (sesame oil), Purity ([2]; Carrier A (NF), 40° C./75% RH, t = 10 day): 99.2 Area - %
Stability of the formulation in Carrier A (sesame oil), Purity ([2]; Carrier A (NF: laboratory grade), t = 0, reported from a representative standard): 99.7 Area - %
Stability of the formulation in Carrier A (sesame oil), Purity ([2]; Carrier A (SR), 25° C./60% RH, t = 3 day): 99.5 Area - %
Stability of the formulation in Carrier A (sesame oil), Purity ([2]; Carrier A (SR), 25° C./60% RH, t = 10 day): 99.5 Area - %
